Measured values from patent US6022696A, “Methods of identifying agonists or antagonists of angiotensin IV” (Washington State University Research Foundation, priority 1998, dated 2000).
Where two headings read alike, the source gives them in different places. Non-standard residues stand in square brackets, D forms with d. Residues, ends and D or L forms follow the SMILES beside them. Nle = CCCC[C@H](N)C(=O)O

Legend:
[1] = system: rat; assay: Systemic arterial blood pressure during renal artery infusion
[2] = system: rat; details: in vivo

`CC[C@H](C)[C@H](NC(=O)[C@H](Cc1ccc(O)cc1)NC(=O)[C@@H](N)CCCCN)C(=O)N[C@@H](Cc1c[nH]cn1)C(=O)N1CCC[C@H]1C(=O)N[C@@H](Cc1ccccc1)C(=O)O` [KYIHPF] (H-KYIHPF-OH) was tested, and the “effect on arterial blood pressure” value [1] was “no significant changes in arterial blood pressure”.

With `CCCC[C@H](N)C(=O)N[C@@H](Cc1ccc(O)cc1)C(=O)N[C@H](C(=O)N[C@@H](Cc1cnc[nH]1)C(=O)N1CCC[C@H]1C(=O)N[C@@H](Cc1ccccc1)C(=O)O)[C@@H](C)CC` [NleYIHPF] (H-[Nle]YIHPF-OH) the “effect on arterial blood pressure” value [2] was “no effect on mean arterial pressure”.
